Measurements taken from paper PMC5448077, “Development of an orally available inhibitor of CLK1 for skipping a mutated dystrophin exon in Duchenne muscular dystrophy” (Scientific Reports, 2017).

Tests used:
Assay in all cases: biochemical
AurA = molecular target: T1, AurA (Homo sapiens, UniProt O14965)
T1 construct: gene AURKA
How it was run: (§1)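 Reactions at room temperature in HEPES buffer (20 mM, pH 7.5, 0.01% Triton X-100, 2 mM DTT) lasted 1 or 5 h depending on kinase, with substrate peptide and ATP-metal. Phosphorylation read by electrophoretic mobility shift or IMAP polarization; kinase activity computed as P/(P + S).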

NDR1 = molecular target: T2, NDR1 (Homo sapiens, UniProt Q15208)
T2 construct: gene STK38
How it was run: as §1

MET(D1228H) = MET(D1228H) (Homo sapiens, UniProt P08581, D1228H)
How it was run: as §1

LATS2 = LATS2 (Homo sapiens, UniProt Q9NRM7)
How it was run: as §1

WNK2 = WNK2 (Homo sapiens, UniProt Q9Y3S1)
How it was run: as §1

TIE2 = molecular target: T3, TIE2 (Homo sapiens, UniProt Q02763)
T3 construct: gene TEK
How it was run: as §1

NEK6 = NEK6 (Homo sapiens, UniProt Q9HC98)
How it was run: as §1

FRK = FRK (Homo sapiens, UniProt P42685)
How it was run: as §1

FGFR3(K650E) = FGFR3(K650E) (Homo sapiens, UniProt P22607, K650E)
How it was run: as §1

ALK = ALK (Homo sapiens, UniProt Q9UM73)
How it was run: as §1

ROS = molecular target: T4, ROS (Homo sapiens, UniProt P08922)
T4 construct: gene ROS1
How it was run: as §1

MAPKAPK2 = MAPKAPK2 (Homo sapiens, UniProt P49137)
How it was run: as §1

MAPKAPK5 = MAPKAPK5 (Homo sapiens, UniProt Q8IW41)
How it was run: as §1

PAK4 = PAK4 (Homo sapiens, UniProt O96013)
How it was run: as §1

ALK(F1174L) = ALK(F1174L) (Homo sapiens, UniProt Q9UM73, F1174L)
How it was run: as §1

EGFR(L861Q) = EGFR(L861Q) (Homo sapiens, UniProt P00533, L861Q)
How it was run: as §1

BLK = BLK (Homo sapiens, UniProt P51451)
How it was run: as §1

HGK = molecular target: T5, HGK (Homo sapiens, UniProt O95819)
T5 construct: gene MAP4K4
How it was run: as §1

PKCθ = molecular target: T6, PKCθ (Homo sapiens, UniProt Q04759)
T6 construct: gene PRKCQ
How it was run: as §1

ROCK2 = ROCK2 (Homo sapiens, UniProt O75116)
How it was run: as §1

AXL = AXL (Homo sapiens, UniProt P30530)
How it was run: as §1

WNK1 = WNK1 (Homo sapiens, UniProt Q9H4A3)
How it was run: as §1

MST1 = molecular target: T7, MST1 (Homo sapiens, UniProt Q13043)
T7 construct: gene STK4
How it was run: as §1

ABL = molecular target: T8, ABL (Homo sapiens, UniProt P00519)
T8 construct: gene ABL1
How it was run: as §1

NuaK1 = NuaK1 (Homo sapiens, UniProt O60285)
How it was run: as §1

HIPK3 = HIPK3 (Homo sapiens, UniProt Q9H422)
How it was run: as §1

PHKG2 = PHKG2 (Homo sapiens, UniProt P15735)
How it was run: as §1

CaMK2δ = molecular target: T9, CaMK2δ (Homo sapiens, UniProt Q13557)
T9 construct: gene CAMK2D
How it was run: as §1

PKN1 = PKN1 (Homo sapiens, UniProt Q16512)
How it was run: as §1

EEF2K = EEF2K (Homo sapiens, UniProt O00418)
How it was run: as §1

FGFR4 = FGFR4 (Homo sapiens, UniProt P22455)
How it was run: as §1

Chain of PHKG2 (P15735 whole entry): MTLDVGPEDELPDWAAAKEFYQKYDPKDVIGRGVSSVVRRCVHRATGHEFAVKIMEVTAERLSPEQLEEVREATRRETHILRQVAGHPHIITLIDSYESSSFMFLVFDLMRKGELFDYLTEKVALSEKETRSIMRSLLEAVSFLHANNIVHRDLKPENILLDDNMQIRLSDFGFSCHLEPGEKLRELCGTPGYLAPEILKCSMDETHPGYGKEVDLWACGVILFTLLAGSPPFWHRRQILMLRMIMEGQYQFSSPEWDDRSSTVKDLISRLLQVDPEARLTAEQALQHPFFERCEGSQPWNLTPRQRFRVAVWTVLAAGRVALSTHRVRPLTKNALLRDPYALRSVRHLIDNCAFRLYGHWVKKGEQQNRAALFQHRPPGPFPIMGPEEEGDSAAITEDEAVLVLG
Chain of AXL (P30530 whole entry): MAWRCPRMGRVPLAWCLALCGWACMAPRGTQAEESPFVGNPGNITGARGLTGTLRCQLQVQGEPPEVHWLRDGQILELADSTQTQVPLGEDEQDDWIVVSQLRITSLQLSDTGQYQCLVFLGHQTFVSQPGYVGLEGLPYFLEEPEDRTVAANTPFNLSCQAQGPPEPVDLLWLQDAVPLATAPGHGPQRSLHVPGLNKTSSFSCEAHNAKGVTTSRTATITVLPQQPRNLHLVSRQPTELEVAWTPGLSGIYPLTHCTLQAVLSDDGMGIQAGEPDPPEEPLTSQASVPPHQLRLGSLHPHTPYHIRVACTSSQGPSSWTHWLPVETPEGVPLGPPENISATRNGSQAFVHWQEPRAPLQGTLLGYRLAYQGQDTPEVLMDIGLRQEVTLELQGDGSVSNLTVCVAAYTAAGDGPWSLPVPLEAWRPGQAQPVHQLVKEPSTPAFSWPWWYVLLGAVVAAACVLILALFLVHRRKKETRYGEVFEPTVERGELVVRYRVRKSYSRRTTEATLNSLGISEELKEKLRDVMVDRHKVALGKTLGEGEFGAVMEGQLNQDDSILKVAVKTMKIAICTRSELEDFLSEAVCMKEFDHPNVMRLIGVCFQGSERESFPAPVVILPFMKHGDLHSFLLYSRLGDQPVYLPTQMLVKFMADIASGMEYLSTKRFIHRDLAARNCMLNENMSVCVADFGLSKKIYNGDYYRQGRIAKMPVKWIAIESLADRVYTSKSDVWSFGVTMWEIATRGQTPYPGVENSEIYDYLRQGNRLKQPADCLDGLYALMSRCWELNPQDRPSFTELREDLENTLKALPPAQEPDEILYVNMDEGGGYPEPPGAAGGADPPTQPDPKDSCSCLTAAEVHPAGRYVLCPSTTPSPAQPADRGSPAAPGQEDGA
T4 sequence (P08922 whole entry): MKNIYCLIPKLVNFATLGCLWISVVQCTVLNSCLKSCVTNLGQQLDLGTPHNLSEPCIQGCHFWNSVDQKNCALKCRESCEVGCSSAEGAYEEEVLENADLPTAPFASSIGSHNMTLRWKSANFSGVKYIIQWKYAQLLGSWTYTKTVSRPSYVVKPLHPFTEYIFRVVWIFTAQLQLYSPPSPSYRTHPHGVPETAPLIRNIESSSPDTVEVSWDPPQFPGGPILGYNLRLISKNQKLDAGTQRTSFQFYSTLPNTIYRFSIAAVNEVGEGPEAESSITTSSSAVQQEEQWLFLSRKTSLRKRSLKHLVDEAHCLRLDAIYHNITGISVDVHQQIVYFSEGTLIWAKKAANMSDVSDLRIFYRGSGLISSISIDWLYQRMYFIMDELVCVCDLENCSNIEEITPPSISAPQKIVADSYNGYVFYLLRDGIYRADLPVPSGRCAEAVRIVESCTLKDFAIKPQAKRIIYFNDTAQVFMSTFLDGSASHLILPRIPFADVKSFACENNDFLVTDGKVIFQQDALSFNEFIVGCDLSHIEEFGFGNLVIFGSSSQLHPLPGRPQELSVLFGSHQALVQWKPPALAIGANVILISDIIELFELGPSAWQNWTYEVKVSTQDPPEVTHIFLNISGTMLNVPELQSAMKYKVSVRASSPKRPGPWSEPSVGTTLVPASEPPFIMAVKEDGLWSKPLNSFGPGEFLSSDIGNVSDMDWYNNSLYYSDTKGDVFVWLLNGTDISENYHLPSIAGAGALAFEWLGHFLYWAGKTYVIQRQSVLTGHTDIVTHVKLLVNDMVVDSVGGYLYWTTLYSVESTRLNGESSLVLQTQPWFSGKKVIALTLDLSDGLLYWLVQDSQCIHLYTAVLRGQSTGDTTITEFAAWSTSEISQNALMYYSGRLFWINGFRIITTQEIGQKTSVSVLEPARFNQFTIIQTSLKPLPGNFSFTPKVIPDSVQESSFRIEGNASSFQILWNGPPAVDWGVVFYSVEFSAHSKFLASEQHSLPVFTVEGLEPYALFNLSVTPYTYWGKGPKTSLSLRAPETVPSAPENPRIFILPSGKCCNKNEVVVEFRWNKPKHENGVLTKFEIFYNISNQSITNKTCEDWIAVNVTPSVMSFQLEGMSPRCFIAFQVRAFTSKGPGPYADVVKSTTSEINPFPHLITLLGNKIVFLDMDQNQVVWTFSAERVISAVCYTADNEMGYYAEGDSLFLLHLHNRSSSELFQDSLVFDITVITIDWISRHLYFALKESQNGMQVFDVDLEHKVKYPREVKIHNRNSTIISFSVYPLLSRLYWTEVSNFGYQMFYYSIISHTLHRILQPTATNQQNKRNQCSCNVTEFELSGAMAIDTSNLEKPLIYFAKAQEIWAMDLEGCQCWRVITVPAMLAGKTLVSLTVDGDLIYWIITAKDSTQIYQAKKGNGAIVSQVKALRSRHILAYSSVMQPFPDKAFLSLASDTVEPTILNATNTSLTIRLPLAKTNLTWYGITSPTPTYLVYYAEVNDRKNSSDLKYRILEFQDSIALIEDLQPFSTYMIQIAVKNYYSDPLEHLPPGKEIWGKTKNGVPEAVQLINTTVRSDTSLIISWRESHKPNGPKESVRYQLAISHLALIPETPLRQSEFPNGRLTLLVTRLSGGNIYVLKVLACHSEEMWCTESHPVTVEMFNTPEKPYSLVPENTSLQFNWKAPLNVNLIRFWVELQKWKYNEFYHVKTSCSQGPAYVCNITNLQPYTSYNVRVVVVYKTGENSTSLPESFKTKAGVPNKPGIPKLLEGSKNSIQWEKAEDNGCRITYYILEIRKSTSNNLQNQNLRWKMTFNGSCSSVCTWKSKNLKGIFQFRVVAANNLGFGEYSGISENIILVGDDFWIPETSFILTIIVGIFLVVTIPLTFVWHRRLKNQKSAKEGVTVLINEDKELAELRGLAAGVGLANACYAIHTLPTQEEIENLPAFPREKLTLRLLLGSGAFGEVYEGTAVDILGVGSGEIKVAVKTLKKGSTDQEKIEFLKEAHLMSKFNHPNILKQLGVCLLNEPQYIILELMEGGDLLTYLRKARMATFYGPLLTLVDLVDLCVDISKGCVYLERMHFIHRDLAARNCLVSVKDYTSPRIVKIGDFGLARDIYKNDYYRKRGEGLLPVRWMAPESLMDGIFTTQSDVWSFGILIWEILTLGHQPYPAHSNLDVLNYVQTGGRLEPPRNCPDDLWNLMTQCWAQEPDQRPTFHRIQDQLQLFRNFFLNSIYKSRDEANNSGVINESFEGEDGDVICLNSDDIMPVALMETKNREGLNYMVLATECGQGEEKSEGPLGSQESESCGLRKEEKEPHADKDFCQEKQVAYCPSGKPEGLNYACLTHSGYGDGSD
Chain of EGFR(L861Q) (P00533 whole entry L861Q): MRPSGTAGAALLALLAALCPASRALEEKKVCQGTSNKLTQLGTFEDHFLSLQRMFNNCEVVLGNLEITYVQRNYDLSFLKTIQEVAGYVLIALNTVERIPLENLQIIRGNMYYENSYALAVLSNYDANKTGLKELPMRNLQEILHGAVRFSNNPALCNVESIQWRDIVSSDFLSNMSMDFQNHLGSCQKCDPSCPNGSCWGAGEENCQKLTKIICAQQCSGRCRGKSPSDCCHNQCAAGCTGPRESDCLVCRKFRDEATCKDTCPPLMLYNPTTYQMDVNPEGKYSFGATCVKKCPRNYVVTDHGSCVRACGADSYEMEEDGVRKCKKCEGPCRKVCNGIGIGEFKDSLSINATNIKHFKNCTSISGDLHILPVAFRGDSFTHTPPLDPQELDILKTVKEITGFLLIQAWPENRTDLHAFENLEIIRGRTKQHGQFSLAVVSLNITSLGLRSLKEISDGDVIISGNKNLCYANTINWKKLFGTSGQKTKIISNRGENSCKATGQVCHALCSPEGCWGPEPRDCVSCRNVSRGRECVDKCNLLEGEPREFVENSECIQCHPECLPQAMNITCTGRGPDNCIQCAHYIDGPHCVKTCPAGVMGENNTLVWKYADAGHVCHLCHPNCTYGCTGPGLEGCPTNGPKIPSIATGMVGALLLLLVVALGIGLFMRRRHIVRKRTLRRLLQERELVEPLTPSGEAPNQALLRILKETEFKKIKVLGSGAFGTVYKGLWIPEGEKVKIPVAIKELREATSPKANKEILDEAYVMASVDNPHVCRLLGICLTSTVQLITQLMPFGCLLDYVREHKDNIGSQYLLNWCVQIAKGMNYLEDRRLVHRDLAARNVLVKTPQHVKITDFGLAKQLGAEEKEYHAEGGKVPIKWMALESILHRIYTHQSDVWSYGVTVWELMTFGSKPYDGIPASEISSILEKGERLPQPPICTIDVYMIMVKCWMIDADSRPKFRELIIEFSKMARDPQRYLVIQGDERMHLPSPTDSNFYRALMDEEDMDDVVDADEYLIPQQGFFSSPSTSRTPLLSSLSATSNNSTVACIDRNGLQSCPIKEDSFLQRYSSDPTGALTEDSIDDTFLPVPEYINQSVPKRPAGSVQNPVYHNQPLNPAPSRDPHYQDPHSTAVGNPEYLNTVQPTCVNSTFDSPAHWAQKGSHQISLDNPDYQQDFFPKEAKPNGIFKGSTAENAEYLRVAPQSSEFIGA

**Q.** Which results are given for c1cc(-c2ccc3[nH]ncc3c2)ccn1 [TG693, 5-(4-pyridinyl)-1H-indazole]?
**A.** inhibition at 1 µM (AurA): -6.2%; inhibition at 1 µM (NDR1): 11.5%; inhibition at 1 µM (MET(D1228H)): 0.6%; inhibition at 1 µM (LATS2): -3.8%; inhibition at 1 µM (WNK2): 4%; inhibition at 1 µM (TIE2): 9.7%; inhibition at 1 µM (NEK6): -2.5%; inhibition at 1 µM (FRK): -2.3%; inhibition at 1 µM (FGFR3(K650E)): 5.2%; inhibition at 1 µM (ALK): 6.1%; inhibition at 1 µM (ROS): 8.1%; inhibition at 1 µM (MAPKAPK2): -26%; inhibition at 1 µM (MAPKAPK5): 2.6%; inhibition at 1 µM (PAK4): -13.7%; inhibition at 1 µM (ALK(F1174L)): -6.9%; inhibition at 1 µM (EGFR(L861Q)): -5.4%; inhibition at 1 µM (BLK): -2.2%; inhibition at 1 µM (HGK): 66.5%; inhibition at 1 µM (PKCθ): -12.6%; inhibition at 1 µM (ROCK2): 46.3%; inhibition at 1 µM (AXL): 3.5%; inhibition at 1 µM (WNK1): 4.1%; inhibition at 1 µM (MST1): -1.9%; inhibition at 1 µM (ABL): -1.3%; inhibition at 1 µM (NuaK1): 7.5%; inhibition at 1 µM (HIPK3): -0.7%; inhibition at 1 µM (PHKG2): 6.3%; inhibition at 1 µM (CaMK2δ): 1.4%; inhibition at 1 µM (PKN1): 34.5%; inhibition at 1 µM (EEF2K): -15.2%; inhibition at 1 µM (FGFR4): 4.3%
